# Molecular target: T1, recombinant human LTA4 hydrolase (rhLTA4H) (Homo sapiens, UniProt P09960)
# T1 construct: made in house; host or cells: Spodoptera frugiperda (Sf-9) cells, baculovirus (pFastBac1)
# T1 sequence (P09960 1-611): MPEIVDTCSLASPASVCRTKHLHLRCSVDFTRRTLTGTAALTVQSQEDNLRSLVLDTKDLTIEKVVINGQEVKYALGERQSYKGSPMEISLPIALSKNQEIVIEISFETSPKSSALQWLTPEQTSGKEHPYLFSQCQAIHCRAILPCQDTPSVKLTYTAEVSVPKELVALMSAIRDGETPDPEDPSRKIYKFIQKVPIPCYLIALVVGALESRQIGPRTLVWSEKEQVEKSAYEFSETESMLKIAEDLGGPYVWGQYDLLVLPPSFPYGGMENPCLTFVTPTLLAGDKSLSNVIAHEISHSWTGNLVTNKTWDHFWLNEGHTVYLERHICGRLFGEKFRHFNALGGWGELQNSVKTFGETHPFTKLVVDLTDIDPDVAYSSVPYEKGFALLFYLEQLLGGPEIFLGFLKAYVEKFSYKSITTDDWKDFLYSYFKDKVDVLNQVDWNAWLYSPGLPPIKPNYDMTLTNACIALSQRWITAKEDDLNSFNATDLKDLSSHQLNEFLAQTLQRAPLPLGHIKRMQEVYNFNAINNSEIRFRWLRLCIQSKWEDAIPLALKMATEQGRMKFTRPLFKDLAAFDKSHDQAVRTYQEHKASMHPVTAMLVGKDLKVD
# Experiment: Recombinant Human LTA4 Hydrolase Assay for LTA4 Hydrolase Inhibitor Activity
# Type: biochemical
# Details: average of results obtained; LTB4 quantified by enzyme-linked immunoassay
# In short: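 Baculovirus/Sf-9-expressed human LTA4 hydrolase (36 ng) preincubated with compound 10 min at rt in 0.1 M potassium phosphate pH 7.4, 5 mg/mL fatty-acid-free BSA. Reaction started with 9 ng LTA4 free acid, run 10 min at rt; LTB4 measured by enzyme immunoassay, IC50 from 4-parameter fit.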
row,Ki [nM],Compound
1,225,"CS(=O)(=O)N1[C@@H]2CC[C@H]1C[C@@H](NCCOc1ccc(Oc3nc4cc(F)ccc4s3)cc1)C2 [Example 233, meso-endo-{2-[4-(5-Fluoro-benzothiazol-2-yloxy)-phenoxy]-ethyl}-(8-methanesulfonyl-8-aza-bicyclo[3.2.1]oct-3-yl)-amine]"
2,72,"NC(=O)N[C@@H]1C[C@H]2CC[C@@H](C1)N2CCOc1ccc(Oc2nc3ccc(Cl)cc3s2)cc1 [Example 234, meso-exo-(8-{2-[4-(6-Chloro-benzothiazol-2-yloxy)-phenoxy]-ethyl}-8-aza-bicyclo[3.2.1]oct-3-yl)-urea]"
3,23,"CC(=O)N1C[C@H]2C[C@@H]1CN2CCc1ccc(Oc2nc3cc(F)ccc3s2)cc1 [Example 235, (R,R)-1-(5-{2-[4-(5-Fluoro-benzothiazol-2-yloxy)-phenyl]-ethyl}-2,5-diaza-bicyclo[2.2.1]hept-2-yl)-ethanone]"
4,169,"CS(=O)(=O)N1C[C@H]2C[C@@H]1CN2Cc1ccc(Oc2nc3ccc(Cl)cc3s2)cc1 [Example 236, (R,R)-6-Chloro-2-[4-(5-methanesulfonyl-2,5-diaza-bicyclo[2.2.1]hept-2-ylmethyl)-phenoxy]-benzothiazole]"
5,244,"CS(=O)(=O)N1[C@@H]2CC[C@H]1C[C@H](NCCc1ccc(Oc3nc4c(Cl)cccc4s3)cc1)C2 [Example 237, meso-exo-{2-[4-(4-Chloro-benzothiazol-2-yloxy)-phenyl]-ethyl}-(8-methanesulfonyl-8-aza-bicyclo[3.2.1]oct-3-yl)-amine]"
6,651,"CS(=O)(=O)N1C[C@@H]2C[C@H]1CN2CCc1ccc(Oc2nc3ccc(Cl)cc3s2)cc1 [Example 238, (S,S)-6-Chloro-2-{4-[2-(5-methanesulfonyl-2,5-diaza-bicyclo[2.2.1]hept-2-yl)-ethyl]-phenoxy}-benzothiazole]"
7,130,"NC(=O)N[C@H]1C[C@H]2CC[C@@H](C1)N2CCc1ccc(Oc2nc3ccc(Cl)cc3s2)cc1 [Example 239, meso-endo-(8-{2-[4-(6-Chloro-benzothiazol-2-yloxy)-phenyl]-ethyl}-8-aza-bicyclo[3.2.1]oct-3-yl)-urea]"
8,510,"CC(=O)N[C@@H]1C[C@H]2CC[C@@H](C1)N2CCOc1ccc(Oc2nc3c(Cl)cccc3s2)cc1 [Example 240, meso-exo-N-(8-{2-[4-(4-Chloro-benzothiazol-2-yloxy)-phenoxy]-ethyl}-8-aza-bicyclo[3.2.1]oct-3-yl)-acetamide]"
9,281,"CS(=O)(=O)N1C[C@H]2C[C@@H]1CN2CCc1ccc(Oc2nc3c(F)cccc3s2)cc1 [Example 241, (R,R)-4-Fluoro-2-{4-[2-(5-methanesulfonyl-2,5-diaza-bicyclo[2.2.1]hept-2-yl)-ethyl]-phenoxy}-benzothiazole]"
10,398,"NC(=O)N[C@@H]1C[C@H]2CC[C@@H](C1)N2CCc1ccc(Oc2nc3cc(F)ccc3s2)cc1 [Example 242, meso-exo-(8-{2-[4-(5-Fluoro-benzothiazol-2-yloxy)-phenyl]-ethyl}-8-aza-bicyclo[3.2.1]oct-3-yl)-urea]"
11,61,"CS(=O)(=O)N1CC2CCC(C1)N2CCOc1ccc(Oc2nc3ccc(F)cc3s2)cc1 [Example 243, meso-6-Fluoro-2-{4-[2-(3-methanesulfonyl-3,8-diaza-bicyclo[3.2.1]oct-8-yl)-ethoxy]-phenoxy}-benzothiazole]"
12,12,"NC(=O)N1C[C@H]2C[C@@H]1CN2CCc1ccc(Oc2nc3cc(F)ccc3s2)cc1 [Example 244, (R,R)-5-{2-[4-(5-Fluoro-benzothiazol-2-yloxy)-phenyl]-ethyl}-2,5-diaza-bicyclo[2.2.1]heptane-2-carboxylic acid amide]"
13,12,"NC(=O)N1C[C@H]2C[C@@H]1CN2CCc1ccc(Oc2nc3cccc(F)c3s2)cc1 [Example 245, (R,R)-5-{2-[4-(7-Fluoro-benzothiazol-2-yloxy)-phenyl]-ethyl}-2,5-diaza-bicyclo[2.2.1]heptane-2-carboxylic acid amide]"
14,40,"NC(=O)N1C[C@H]2C[C@@H]1CN2CCc1ccc(Oc2nc3ccc(Cl)cc3s2)cc1 [Example 246, (R,R)-5-{2-[4-(6-Chloro-benzothiazol-2-yloxy)-phenyl]-ethyl}-2,5-diaza-bicyclo[2.2.1]heptane-2-carboxylic acid amide]"
15,167,CC(=O)N1CC2CCC(C1)N2CCOc1ccc(Oc2nc3c(Cl)cccc3s2)cc1 [Example 247]
16,3130,"CS(=O)(=O)N1[C@@H]2CC[C@H]1C[C@@H](NCCOc1ccc(Oc3nc4cccc(Cl)c4s3)cc1)C2 [Example 248, meso-endo-{2-[4-(7-Chloro-benzothiazol-2-yloxy)-phenoxy]-ethyl}-(8-methanesulfonyl-8-aza-bicyclo[3.2.1]oct-3-yl)-amine]"
17,11,"CC(=O)N1C[C@H]2C[C@@H]1CN2CCOc1ccc(Oc2nc3cccc(F)c3s2)cc1 [Example 249, (R,R)-1-(5-{2-[4-(7-Fluoro-benzothiazol-2-yloxy)-phenoxy]-ethyl}-2,5-diaza-bicyclo[2.2.1]hept-2-yl)-ethanone]"
18,232,"CC(=O)N1CC2CCC(C1)N2CCc1ccc(Oc2nc3ccc(Cl)cc3s2)cc1 [Example 250, meso-1-(8-{2-[4-(6-Chloro-benzothiazol-2-yloxy)-phenyl]-ethyl}-3,8-diaza-bicyclo[3.2.1]oct-3-yl)-ethanone]"
19,33,"CS(=O)(=O)N[C@@H]1C[C@H]2CC[C@@H](C1)N2CCOc1ccc(Oc2nc3cccc(F)c3s2)cc1 [Example 251, meso-exo-N-(8-{2-[4-(7-Fluoro-benzothiazol-2-yloxy)-phenoxy]-ethyl}-8-aza-bicyclo[3.2.1]oct-3-yl)-methanesulfonamide]"
20,108,"NC(=O)N1C[C@H]2C[C@@H]1CN2CCc1ccc(Oc2nc3c(Cl)cccc3s2)cc1 [Example 252, (R,R)-5-{2-[4-(4-Chloro-benzothiazol-2-yloxy)-phenyl]-ethyl}-2,5-diaza-bicyclo[2.2.1]heptane-2-carboxylic acid amide]"
21,2600,"CC(=O)N1C[C@@H]2C[C@H]1CN2CCc1ccc(Oc2nc3c(Cl)cccc3s2)cc1 [Example 253, (S,S)-1-(5-{2-[4-(4-Chloro-benzothiazol-2-yloxy)-phenyl]-ethyl}-2,5-diaza-bicyclo[2.2.1]hept-2-yl)-ethanone]"
22,115,"CC(=O)N[C@@H]1C[C@H]2CC[C@@H](C1)N2CCc1ccc(Oc2nc3cccc(F)c3s2)cc1 [Example 254, meso-exo-N-(8-{2-[4-(7-Fluoro-benzothiazol-2-yloxy)-phenyl]-ethyl}-8-aza-bicyclo[3.2.1]oct-3-yl)-acetamide]"
23,277,"Cc1ccc2sc(Oc3ccc(OCCN4C[C@@H]5C[C@H]4CN5S(C)(=O)=O)cc3)nc2c1 [Example 255, (S,S)-2-{4-[2-(5-Methanesulfonyl-2,5-diaza-bicyclo[2.2.1]hept-2-yl)-ethoxy]-phenoxy}-5-methyl-benzothiazole]"
24,1710,"CS(=O)(=O)N1CC2CCC(C1)N2CCOc1ccc(Oc2nc3cc(Cl)ccc3s2)cc1 [Example 256, meso-5-Chloro-2-{4-[2-(3-methanesulfonyl-3,8-diaza-bicyclo[3.2.1]oct-8-yl)-ethoxy]-phenoxy}-benzothiazole]"
25,490,"NC(=O)N1[C@@H]2CC[C@H]1C[C@@H](NCCOc1ccc(Oc3nc4cc(Cl)ccc4s3)cc1)C2 [Example 257, meso-endo-3-{2-[4-(5-Chloro-benzothiazol-2-yloxy)-henoxy]-ethylamino}-8-aza-bicyclo[3.2.1]octane-8-carboxylic acid amide]"
26,8,"CS(=O)(=O)N1CC2CCC(C1)N2Cc1ccc(Oc2nc3c(F)cccc3s2)cc1 [Example 258, meso-4-Fluoro-2-[4-(3-methanesulfonyl-3,8-diaza-bicyclo[3.2.1]oct-8-ylmethyl)-phenoxy]-benzothiazole]"
27,58,"NC(=O)N[C@H]1C[C@H]2CC[C@@H](C1)N2Cc1ccc(Oc2nc3cc(Cl)ccc3s2)cc1 [Example 259, meso-endo-{8-[4-(5-Chloro-benzothiazol-2-yloxy)-benzyl]-8-aza-bicyclo[3.2.1]oct-3-yl}-urea]"
28,26,"NC(=O)N[C@@H]1C[C@H]2CC[C@@H](C1)N2Cc1ccc(Oc2nc3cc(F)ccc3s2)cc1 [Example 260, meso-exo-{8-[4-(5-Fluoro-benzothiazol-2-yloxy)-benzyl]-8-aza-bicylclo[3.2.1]oct-3-yl}-urea]"
29,100,"Cc1ccc2nc(Oc3ccc(CCN4[C@@H]5CC[C@H]4C[C@@H](NC(N)=O)C5)cc3)sc2c1 [Example 261, meso-endo-(8-{2-[4-(6-Methyl-benzothiazol-2-yloxy)-phenyl]-ethyl}-8-aza-bicyclo[3.2.1]oct-3-yl)-urea]"
30,12,"NC(=O)N[C@H]1C[C@H]2CC[C@@H](C1)N2CCOc1ccc(Oc2nc3c(F)cccc3s2)cc1 [Example 262, meso-endo-(8-{2-[4-(4-Fluoro-benzothiazole-2-yloxy)-phenoxy]-ethyl}-8-aza-bicyclo[3.2.1]oct-3-yl)-urea]"
